This passage reports IC50 results from patent US8658661B2, “Oxadiazole inhibitors of leukotriene production” (Boehringer Ingelheim International GmbH, priority 2010, dated 2014).

Like-named read-outs stand apart in the source and are kept apart here. Where only a bound is given, the exact number is not on record here.

For orientation: IC50 means the midpoint of a concentration-inhibition curve.

Assay [1] has as its target T1, recombinant human FLAP protein (Homo sapiens, UniProt P20292).
T1 construct: made in house; host or cells: Sf9 insect cells (100,000×g membrane pellet used)
T1 sequence (P20292 1-161): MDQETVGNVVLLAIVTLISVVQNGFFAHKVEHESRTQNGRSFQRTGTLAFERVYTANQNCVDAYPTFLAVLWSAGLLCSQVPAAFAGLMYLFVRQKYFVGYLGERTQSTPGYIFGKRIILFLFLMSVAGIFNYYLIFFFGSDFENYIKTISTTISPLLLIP
Description: FLAP binding assay (SPA, displacement of [125I]L-691,831). The method, boiled down:
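Membranes from sf9 cells expressing human FLAP in pH 7.5 Tris buffer (MgCl2, EDTA, PMSF). Non-specific binding defined with 10 μM cold L-691,831.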
For orientation: Loss of bound radioactivity is the signal in a displacement assay; it reports binding, not function.

In assay [2] the test system is synthesis of LTB4 in human whole blood. Nature of the assay: Human whole blood assay (inhibition of LTB4 synthesis, calcimycin stimulated). Format: cell-based. The following applies: heparinized human whole blood, calcimycin 20 μM, plasma LTB4. The procedure, abridged:
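Heparinized human whole blood was preincubated with compound for 15 min at 37° C, then stimulated with calcimycin (20 μM final, in PBS pH 7.4) for a further 30 min at 37° C. Plasma LTB4 was quantified by antibody-based homogeneous time-resolved fluorescence.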

Where [3] appears, read: membranes of sf9 cells expressing recombinant human FLAP, [125I]L-691,831 probe, read-out: FLAP binding IC50.

In the case of `CC(C)[C@](C)(c1ccc(-c2cnc(N)nc2)cc1)c1noc(-c2cnn(CC(C)(C)O)c2)n1` [Example 107, 1-[4-(3-{(2R)-2-[4-(2-aminopyrimidin-5-yl)phenyl]-3-methylbutan-2-yl}-1,2,4-oxadiazol-5-yl)-1H-pyrazol-1-yl]-2-methylpropan-2-ol], the half-maximal inhibitory concentration (IC50) was found to be 0.86 nM in assay [1] (setting [3]) and 17 nM in assay [2].

With `CC(C)C(C)(c1ccc(-c2cnc(N)nc2)cc1)c1noc(-c2ccn[nH]2)n1` (stereo not drawn) [Example 19, 5-(4-{3-methyl-2-[5-(1H-pyrazol-5-yl)-1,2,4-oxadiazol-3-yl]butan-2-yl}phenyl)pyrimidin-2-amine], the 50% inhibitory concentration (IC50) in assay [1] (setting [3]) worked out at 5.8 nM; in assay [2] it was 260 nM.

For the compound `CC(C)C(C)(c1ccc(-c2cnc(N)nc2)cc1)c1noc(N2CC(O)C2)n1` (stereo not drawn) [Example 200, 1-(3-{1-[4-(2-Amino-pyrimidin-5-yl)-phenyl]-1,2-dimethyl-propyl}-[1,2,4]oxadiazol-5-yl)-azetidin-3-ol], the IC50 in assay [1] (setting [3]) was found to be 15 nM; in assay [2] it was 250 nM.

Regarding `CN(C)C(=O)Cn1cc(-c2nc([C@](C)(c3ccc(-c4cnc(N)nc4)cc3)C3CC3)no2)cn1` (single isomer, unassigned) [Example 116], the IC50 in assay [1] (setting [3]) is 150 nM; in assay [2], 2000 nM.

As for `COCCn1cc(-c2nc([C@@](C)(c3ccc(-c4ccc(N)nc4)cc3)C3CC3)no2)cn1` [Example 183, 5-[4-((R)-1-Cyclopropyl-1-{5-[1-(2-methoxy-ethyl)-1H-pyrazol-4-yl]-[1,2,4]oxadiazol-3-yl}-ethyl)-phenyl]-pyridin-2-ylamine], the values for the IC50 in assay [1] (setting [3]) and in assay [2] were 5.5 nM and 39 nM, respectively.

As for `CN(C)C(=O)Cn1cc(-c2nc([C@@](C)(c3ccc(-c4cnc(N)[nH]c4=O)cc3)C3CC3)no2)cn1` [Example 197, 2-[4-(3-{(R)-1-[4-(2-amino-6-oxo-1,6-dihydro-pyrimidin-5-yl)-phenyl]-1-cyclopropyl-ethyl}-[1,2,4]oxadiazol-5-yl)-pyrazol-1-yl]-N,N-dimethyl-acetamide], the figures for the half-inhibitory concentration (IC50) in assay [1] (setting [3]) and in assay [2] were 16 nM and > 5000 nM, respectively.

For `CC(C)C(C)(c1ccc(-c2cnc(N)nc2)cc1)c1noc(NCCS(C)(=O)=O)n1` (stereo not drawn) [Example 87, 5-{4-[3-methyl-2-(5-{[2-(methylsulfonyl)ethyl]amino}-1,2,4-oxadiazol-3-yl)butan-2-yl]phenyl}pyrimidin-2-amine], the half-maximal inhibitory concentration (IC50) stood at 41 nM in assay [1] (setting [3]) and 970 nM in assay [2].

As for `COCCn1cc(-c2nc([C@](C)(c3ccc(-c4cnc(N)nc4)cc3)C3CC3)no2)cn1` [Example 53, 5-{4-[(1S)-1-cyclopropyl-1-{5-[1-(2-methoxyethyl)-1H-pyrazol-4-yl]-1,2,4-oxadiazol-3-yl}ethyl]phenyl}pyrimidin-2-amine], the values for the half-inhibitory concentration (IC50) in assay [1] (setting [3]) and in assay [2] were 27 nM and 450 nM, respectively.

As to `CC(C)(O)Cn1cc(-c2nc([C@@](C)(c3ccc(-c4cnc(N)nc4)cc3)C3CC3)no2)cn1` [Example 174, 1-[4-(3-{(R)-1-[4-(2-Amino-pyrimidin-5-yl)-phenyl]-1-cyclopropyl-ethyl}-[1,2,4]oxadiazol-5-yl)-pyrazol-1-yl]-2-methyl-propan-2-ol], the half-inhibitory concentration (IC50) in assay [1] (setting [3]) came out at 1.2 nM; in assay [2], 19 nM.

Consider `COCCn1cc(-c2nc(C(C)(c3ccc(-c4cnc(N)nc4)cc3)C(C)C)no2)cn1` (stereo not drawn) [Example 158, 5-[4-(2-{5-[1-(2-methoxyethyl)-1H-pyrazol-4-yl]-1,2,4-oxadiazol-3-yl}-3-methylbutan-2-yl)phenyl]pyrimidin-2-amine], for which the IC50 in assay [1] (setting [3]) worked out at 3.4 nM; in assay [2], 55 nM.

`CCNc1ncc(-c2ccc(C(C)(c3noc(-c4cnn(CC(=O)N(C)C)c4)n3)C3CC3)cc2)cn1` (stereo not drawn) [Example 249, 2-[4-(3-{1-Cyclopropyl-1-[4-(2-ethylamino-pyrimidin-5-yl)-phenyl]-ethyl}-[1,2,4]oxadiazol-5-yl)-pyrazol-1-yl]-N,N-dimethyl-acetamide]: the IC50 was 370 nM in assay [1] (setting [3]) and > 5000 nM in assay [2].

As to `CC(C)C(C)(c1ccc(-c2cnc(N)nc2)cc1)c1noc(-c2cn[nH]c2)n1` (stereo not drawn) [Example 146, 5-(4-{3-methyl-2-[5-(1H-pyrazol-4-yl)-1,2,4-oxadiazol-3-yl]butan-2-yl}phenyl)pyrimidin-2-amine], the 50% inhibitory concentration (IC50) came out at 1.3 nM in assay [1] (setting [3]) and 46 nM in assay [2].

As to `CC1(O)CN(c2nc(C(C)(c3ccc(-c4cnc(N)nc4)cc3)C3CC3)no2)C1` (stereo not drawn) [Example 276, 1-(3-{1-[4-(2-Amino-pyrimidin-5-yl)-phenyl]-1-cyclopropyl-ethyl}-[1,2,4]oxadiazol-5-yl)-3-methyl-azetidin-3-ol], the IC50 came out at 28 nM in assay [1] (setting [3]) and 260 nM in assay [2].

Regarding `Cc1ccc(-c2nc(C(C)(c3ccc(-c4cnc(N)nc4)cc3)C(C)C)no2)cn1` (stereo not drawn) [Example 4, 5-(4-{3-methyl-2-[5-(6-methylpyridin-3-yl)-1,2,4-oxadiazol-3-yl]butan-2-yl}phenyl)pyrimidin-2-amine], the results for the half-maximal inhibitory concentration (IC50) in assay [1] (setting [3]) and in assay [2] were 1.6 nM and 310 nM, respectively.

For `CC(C)[C@](C)(c1ccc(-c2cnc(N)nc2)cc1)c1noc(-c2cnn(C)c2)n1` (single isomer, unassigned) [Example 46], the half-inhibitory concentration (IC50) in assay [1] was found to be 1.6 nM; in assay [2], 33 nM.

Regarding `C[C@@](c1ccc(-c2cnc(N)nc2)cc1)(c1noc(-c2cnc(N3CCNCC3)cn2)n1)C1CC1` [Example 196, 5-(4-{(R)-1-Cyclopropyl-1-[5-(3,4,5,6-tetrahydro-2H-[1,2′]bipyrazinyl-5′-yl)-[1,2,4]oxadiazol-3-yl]-ethyl}-phenyl)-pyrimidin-2-ylamine], the values for the concentration for half-maximal inhibition (IC50) in assay [1] (setting [3]) and in assay [2] were 2.2 nM and 180 nM, respectively.

As for `CN(C)C(=O)Cn1cc(-c2nc(C(C)(c3ccc(-c4cnc(N)nc4)cc3)C3CC3)no2)cn1` (stereo not drawn) [Example 59, 2-[4-(3-{1-[4-(2-aminopyrimidin-5-yl)phenyl]-1-cyclopropylethyl}-1,2,4-oxadiazol-5-yl)-1H-pyrazol-1-yl]-N,N-dimethylacetamide], the results for the IC50 in assay [1] (setting [3]) and in assay [2] were 1.1 nM and 76 nM, respectively.

In the case of `COCCn1cc(-c2nc([C@@](C)(c3ccc(-c4cnc(N)cn4)cc3)C3CC3)no2)cn1` [Example 191, 5-[4-((R)-1-Cyclopropyl-1-{5-[1-(2-methoxy-ethyl)-1H-pyrazol-4-yl]-[1,2,4]oxadiazol-3-yl}-ethyl)-phenyl]-pyrazin-2-ylamine], the IC50 stood at 5.9 nM in assay [1] (setting [3]) and 17 nM in assay [2].

Turning to `CC(C)[C@@](C)(c1ccc(-c2cnc(N)nc2)cc1)c1noc(-c2ccn(C)n2)n1` [Example 17, 5-(4-{(2S)-3-methyl-2-[5-(1-methyl-1H-pyrazol-3-yl)-1,2,4-oxadiazol-3-yl]butan-2-yl}phenyl)pyrimidin-2-amine], the IC50 is 24 nM in assay [1] (setting [3]) and 510 nM in assay [2].

As for `CC(C)C(C)(c1ccc(-c2cnc(N)nc2)cc1)c1noc(N2CCN(CC(=O)O)CC2)n1` (stereo not drawn) [Example 272, [4-(3-{1-[4-(2-Amino-pyrimidin-5-yl)-phenyl]-1,2-dimethyl-propyl}-[1,2,4]oxadiazol-5-yl)-piperazin-1-yl]-acetic acid], the figures for the IC50 in assay [1] (setting [3]) and in assay [2] were 280 nM and > 5000 nM, respectively.

In the case of `CC(C)C(C)(c1ccc(-c2cnc(N)nc2)cc1)c1noc(-c2cnn(CC(C)(C)O)c2)n1` (stereo not drawn) [Example 159, 1-[4-(3-{2-[4-(2-aminopyrimidin-5-yl)phenyl]-3-methylbutan-2-yl}-1,2,4-oxadiazol-5-yl)-1H-pyrazol-1-yl]-2-methylpropan-2-ol], the results for the IC50 in assay [1] (setting [3]) and in assay [2] were 4.6 nM and 83 nM, respectively.

Regarding `CC(O)CNc1ccc(-c2nc(C(C)(c3ccc(-c4cnc(N)nc4)cc3)C3CC3)no2)cn1` (stereo not drawn) [Example 40, 1-{[5-(3-{1-[4-(2-aminopyrimidin-5-yl)phenyl]-1-cyclopropylethyl}-1,2,4-oxadiazol-5-yl)pyridin-2-yl]amino}propan-2-ol], the concentration for half-maximal inhibition (IC50) in assay [1] (setting [3]) is 2.3 nM; in assay [2] it was 100 nM.

In the case of `CC(C)C(C)(c1ccc(-c2cnc(N)nc2)cc1)c1noc(C2(C)CC2)n1` (stereo not drawn) [Example 118, 5-(4-{3-methyl-2-[5-(1-methylcyclopropyl)-1,2,4-oxadiazol-3-yl]butan-2-yl}phenyl)pyrimidin-2-amine], the values for the IC50 in assay [1] (setting [3]) and in assay [2] were 9.9 nM and 820 nM, respectively.

`Cc1ncccc1-c1nc(C(C)(c2ccc(-c3cnc(N)nc3)cc2)C(C)C)no1` (stereo not drawn) [Example 5, 5-(4-{3-methyl-2-[5-(2-methylpyridin-3-yl)-1,2,4-oxadiazol-3-yl]butan-2-yl}phenyl)pyrimidin-2-amine]: the 50% inhibitory concentration (IC50) in assay [1] (setting [3]) was 1.6 nM; in assay [2], 150 nM.

For the compound `Cn1cc(-c2nc([C@@](C)(c3ccc(-c4cnc(N)nc4)cc3)C3CCC3)no2)cn1` [Example 121, 5-(4-{(1R)-1-cyclobutyl-1-[5-(1-methyl-1H-pyrazol-4-yl)-1,2,4-oxadiazol-3-yl]ethyl}phenyl)pyrimidin-2-amine], the values for the concentration for half-maximal inhibition (IC50) in assay [1] (setting [3]) and in assay [2] were 2.6 nM and 91 nM, respectively.

Regarding `CC(C)C(C)(c1ccc(-c2cnc(N)nc2)cc1)c1noc(-c2ccc(C(N)=O)nc2)n1` (stereo not drawn) [Example 125, 5-(3-{2-[4-(2-aminopyrimidin-5-yl)phenyl]-3-methylbutan-2-yl}-1,2,4-oxadiazol-5-yl)pyridine-2-carboxamide], the IC50 was found to be 1.5 nM in assay [1] (setting [3]) and 290 nM in assay [2].

Turning to `Cc1nc(N)cnc1-c1ccc(C(C)(c2noc(-c3cnn(CC(=O)N(C)C)c3)n2)C2CC2)cc1` (stereo not drawn) [Example 245, 2-[4-(3-{1-[4-(5-Amino-3-methyl-pyrazin-2-yl)-phenyl]-1-cyclopropyl-ethyl}-[1,2,4]oxadiazol-5-yl)-pyrazol-1-yl]-N,N-dimethyl-acetamide], the IC50 in assay [1] (setting [3]) is 28 nM; in assay [2], 310 nM.
